Assay: gradient 5% acetonitrile 3 min, to 50% in 2 min, to 85% in 15 min, held 3 min, 100 µL/min
Details: column: Zorbax Extend-C18 2.1 x 50 mm; eluents: water / acetonitrile, 0.1% formic acid
Outline: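 Pure standards were run in mixtures of ~100 molecules by HPLC coupled to a quadrupole time-of-flight mass spectrometer. The column was a Zorbax Extend-C18 (2.1 × 50 mm, 1.8 μm) at 100 μL/min, with water and acetonitrile each containing 0.1% formic acid, in positive and negative ionization mode. Dead and dwell volumes were 40 μL and 900 μL. Retention time was taken from computationally picked adduct peaks, each manually inspected, with data collected over 3 months.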

Row | SMILES | RP-LC retention time [s]
1 | O=C(C1=CN(c2ccc3c(c2)OCCO3)c2cc(Cl)ccc2S1(=O)=O)N1CCCCC1 | 873
2 | O=c1oc2cc(O)cc(O)c2c2ccccc12 | 699
3 | NC(=O)CSc1nnc(-c2cccc(Cl)c2)o1 | 696
4 | Cc1ccccc1-c1cc(C(=O)N2CCC(NC(=O)C3CCC(C)CC3)CC2)[nH]n1 (stereo not drawn) | 811
5 | COC(=O)C(C)n1nc2nc(Nc3ccc(C)c(F)c3)cc(C)n2c1=O (stereo not drawn) | 1100
6 | Cc1cccc(NC(=O)Nc2cnn(-c3ncncc3N3CCC(C)CC3)c2)c1 | 761
7 | Cc1ccc(NC(=O)c2cn(C)nc2S(=O)(=O)N2CCSCC2)cc1 | 928
8 | Cn1c(=O)c(=O)n(C)c2cc(Oc3ccccc3)c(NC(=O)C3CCCCC3)cc21 | 870
9 | COc1ccc2nc(C(=O)NC(C)c3ccccc3)cn2n1 (stereo not drawn) | 803
10 | CCn1c(=O)c(SCC(=O)NCCCN2CCCCC2C)nc2ccccc21 (stereo not drawn) | 602
11 | CCc1ccc(CNC(=O)C2CCCN(c3nc4c(s3)c(C)nn4-c3ccc(Cl)cc3)C2)cc1 (stereo not drawn) | 1380
12 | CCN(CC)C(=O)CC(c1cc(OC)c(OC)c(OC)c1)N1Cc2ccccc2C1=O (stereo not drawn) | 769
13 | c1ccc(N2CCN(Cc3cccn3-c3nnc(N4CCCCC4)s3)CC2)nc1 | 627
14 | O=C(Cn1ccn2nc(-c3ccccc3)c(CO)c2c1=O)N1CCN(c2ccccc2)CC1 | 800
15 | COc1cccc(C2NC(=O)NC(C)=C2C(=O)OC2CCCCCC2)c1OC (stereo not drawn) | 971
16 | Cc1cc(C)n(-c2nc(CC(=O)NCc3ccc(F)cc3)cs2)n1 | 854
17 | CCn1c(C(=O)N2CCN(c3ccc(F)cc3)CC2)cc2c(-c3cccs3)nn(-c3ccccc3)c21 | 1220
18 | Cc1ccccc1-c1nnc(COc2ccc(NC(=O)C3CCC3)cc2)o1 | 885
19 | O=C(Nc1ccc(OCC(=O)N2CCCN(c3ncccn3)CC2)nc1)C1CC1 | 612
20 | O=C(Nc1c(-c2ccc(F)cc2)nc2ccccn12)c1ccc(Cl)cc1Cl | 739
21 | Cc1ccc(S(=O)(=O)N2CC(=O)N(c3cccc(F)c3)C(C)(C(=O)NCCC(C)C)C2)cc1 (stereo not drawn) | 1020
22 | CCc1nnc(-c2ccc(S(=O)(=O)N3CCOCC3)o2)o1 | 714
23 | COc1ccc(-c2nc3ccc(C)cn3c2Nc2ccc(Cl)cc2)cc1 | 782

Row | SMILES | RP-LC retention time [s]
24 | CNC(=O)C1CCCN(S(C)(=O)=O)CCC(=O)NCC1 (stereo not drawn) | 539
25 | Cc1ccc(NC(=O)C2CCN(c3nnc4ccc(Cl)cn34)CC2)c(F)c1 | 749
26 | CCNc1cc(N2CCCC(CCC(=O)NC(C)C)C2)ncn1 (stereo not drawn) | 601
27 | CCN1C(=O)C2CC3(CCN(C(=O)CC(C)C)CC3)CN2C1=O (stereo not drawn) | 692
28 | Cc1cc(C)c2c(N3CCOCC3)nc(C(=O)NCCC(C)C)nc2n1 | 648
29 | COC(=O)c1cnc2nc(C)ccc2c1Nc1ccc(F)c(Cl)c1 | 717
30 | Cn1ccc(C(=O)Nc2ccc(Cl)cc2C(=O)c2ccccc2)n1 | 1010
31 | COc1ccc(S(=O)(=O)N2C[C@H]3CN(S(=O)(=O)c4ccccc4)C[C@@H](C2)O3)cc1 | 893
32 | O=C(CN1C[C@H]2C[C@H](C1)[C@H]1CCCC(=O)N1C2)NCc1cccs1 | 578
33 | O=C(c1ccoc1)N1CC(Oc2ccc(-c3nc(-c4ccccc4)no3)cc2)C1 | 1040
34 | COc1ccc(C2(c3nc(-c4ccc5oc(C)nc5c4)no3)CC2)cc1 | 651
35 | O=C(CN1CC(c2nc(-c3ncccn3)no2)C1)Nc1ccc(F)c(Cl)c1 | 576
36 | Cc1ccccc1NC(=O)NC1CCN(c2ccc(F)cc2)C1=O (stereo not drawn) | 792
37 | CSc1ccc(-c2nc3cccc(C)n3c2Nc2ccc(C)cc2)cc1 | 824
38 | COc1ccc(C(=O)CN(Cc2ccccc2)C2=NCCS2)cc1 | 600
39 | O=C(O)c1nnn(-c2ccc(C(F)(F)F)cc2)c1C(F)(F)F | 824
40 | C(=N\n1cnnc1)/c1ccc2c(c1)CCC2 | 858
41 | CCCNC(=O)N1N=C(c2ccc(N)cc2)c2cc3c(cc2C1C)OCO3 (stereo not drawn) | 854
42 | CCCn1cc(C(=O)NCC(=O)OCC)c(S(=O)(=O)N2CCN(c3cccc(Cl)c3)CC2)n1 | 1060
43 | Cc1csc(-c2cn(CC(=O)Nc3ccc(C)c(F)c3)cn2)n1 | 728
44 | O=S(=O)(c1c(Cl)cccc1Cl)N1CCN(Cc2ccc3c(c2)OCO3)CC1 | 595
45 | COc1ccc(-c2cn3ccn(-c4cc(C)cc(C)c4)c(=O)c3n2)cc1 | 874
46 | Cn1ncc2c(N3CCSCC3)nc(C(=O)NCCc3cccnc3)nc21 | 575

Row | SMILES | RP-LC retention time [s]
47 | O=C1C(OC2CCN(Cc3cc(F)ccc3F)CC2)CCN1C1CCCC1 (stereo not drawn) | 641
48 | CC(C)(C)C(=O)NC1CCN(C(=O)C2CC2)C1 (stereo not drawn) | 623
49 | O=C(Cn1nc(Cc2ccncc2)c2ccccc2c1=O)NCCCN1CCc2ccccc2C1 | 567
50 | CCCNc1nc(-c2cccc(Br)c2)cs1 | 1030
51 | COCCCNC(=O)Cn1ccc2c(SCc3ccccc3)nccc21 | 636
52 | COc1ccccc1NCC(O)Cn1ccc2ccccc21 (stereo not drawn) | 871
53 | O=C(CCc1c(-c2ccccc2)nc2ccccn12)Nc1ccccc1Cl | 668
54 | COc1ccc2c(c1)C=C(C(=O)NCCc1c[nH]c3ccc(OC)cc13)CO2 | 800
55 | O=C(NCCc1cnc[nH]1)c1ccc2nc(CCc3ccccc3)oc2c1 | 641
56 | COc1ccccc1NC(=O)NC(C(=O)N1CCc2ccccc21)C(C)C (stereo not drawn) | 723
57 | O=C(c1ccc(N2CCNC(c3ccccc3)C2)nc1)N1CCSCC1 (stereo not drawn) | 606
58 | CCOc1ccccc1NC(=O)CSc1nnc2c3cc(-c4ccc(F)cc4)nn3ccn12 | 948
59 | Cc1ccccc1CN1CC(=O)N(c2ccccc2)[C@@H]2CS(=O)(=O)C[C@@H]21 | 800
60 | COC[C@@H]1CN(c2cnccn2)C[C@H]1C(=O)NCCn1cccn1 | 564
61 | CCN1CCN(CCCNS(=O)(=O)c2cccc(-c3nc(-c4ccc(C)cc4)no3)c2)CC1 | 690
62 | COc1ccccc1NC(=O)Cn1c(=O)cc(-c2nc(C3CC3)no2)c2ccccc21 | 1280
63 | CC1CCN(C(=O)c2ccccc2OCC2CCCN(C3CCCC3)C2)CC1 (stereo not drawn) | 696
64 | CC(C)Oc1ccc(CNS(=O)(=O)c2cc(-c3nc(C(C)C)cs3)cs2)cc1 | 1210
65 | CO[C@H]1C(=O)N(C(C)C)[C@H]1C1CCN(S(=O)(=O)c2cccc3nsnc23)CC1 | 831
66 | COCc1nnc2n1CCC(NC(=O)c1ccoc1)CC2 (stereo not drawn) | 561
67 | CO/N=C1/CN(c2nc3c(cc2F)c(=O)c(C(=O)O)cn3C2CC2)CC1CN (stereo not drawn) | 636
68 | Cn1cc(C(CNC(=O)Nc2ccc3c(c2)OCO3)c2cccnc2)c2ccccc21 (stereo not drawn) | 684

Source: the METLIN SMRT retention time set (Domingo-Almenara et al. 2019)
